Reference: patent US10800772B2 (Gilead Sciences, Inc., priority 2016, dated 2020)
Where two headings read alike, the source gives them in different places.

Key:
[1] = Hum MS stability (human microsomal stability half-life); details: human microsomes
HIV-IIIb (wildtype) = experiment: Antiviral assay in MT4 cells, HIV-IIIb wildtype; assay type: cell-based, HIV-1; details: read-out: WT EC50
Method in brief: (§1)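 Luminescence from CellTiter-Glo after a 5-day culture served as the measure of HIV-1 replication in MT4 cells. Cells were infected beforehand for 3 h with HIV-IIIb (0.004 m.o.i.) and exposed to ten 3-fold compound dilutions. EC50 corresponds to a 50% signal decrease.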

HIV-IIIb IN T174I DE = experiment: Antiviral assay in MT4 cells, HIV-IIIb IN T174I DE virus (from dose escalation passaging); assay type: cell-based, HIV-1; details: Human immunodeficiency virus 1, IIIB, MT4, 120 h, read-out: T174I DE EC50, MT4 cells, HIV-IIIb IN T174I DE (dose escalation), 5 days, CellTiter-Glo
Method in brief: as §1

HIV-IIIb IN T174I BT = experiment: Antiviral assay in MT4 cells, HIV-IIIb IN T174I BT virus (from viral breakthrough); assay type: cell-based, HIV-1; details: Human immunodeficiency virus 1, IIIB, MT4, 120 h, read-out: T174I BT EC50, MT4 cells, HIV-IIIb IN T174I BT (viral breakthrough), 5 days, CellTiter-Glo
Method in brief: as §1

[2] = Human immunodeficiency virus 1, 120 h, MT4 cells, HIV-IIIb wildtype, 5 days, CellTiter-Glo
[3] = Human immunodeficiency virus 1, IIIB, MT4, 120 h

Cc1cc2nc(-c3ccc4c(c3)c(C3CCN(C5COC5)CC3)nn4C)sc2c(-c2ccc(Cl)cc2)c1[C@H](OC(C)(C)C)C(=O)O [Compound 1, (S)-2-(tert-butoxy)-2-(7-(4-chlorophenyl)-5-methyl-2-(1-methyl-3-(1-(oxetan-3-yl)piperidin-4-yl)-1H-indazol-5-yl)benzo[d]thiazol-6-yl)acetic Acid]
half-life [1]: 5.83 h
EC50 (HIV-IIIb (wildtype); [2]): 0.005 µM
EC50 (HIV-IIIb IN T174I DE): 0.315 µM
EC50 (HIV-IIIb IN T174I BT): 0.143 µM

COC1CN(c2nn(C)c3ccc(-c4nc5cc(C)c([C@H](OC(C)(C)C)C(=O)O)c(-c6ccc(Cl)cc6)c5s4)cc23)C1 [Compound 2, (S)-2-(tert-butoxy)-2-(7-(4-chlorophenyl)-2-(3-(3-methoxyazetidin-1-yl)-1-methyl-1H-indazol-5-yl)-5-methylbenzo[d]thiazol-6-yl)acetic Acid]
half-life [1]: 1.82 h
EC50 (HIV-IIIb (wildtype); [3]): 0.007 µM
EC50 (HIV-IIIb IN T174I DE): 2.58 µM
EC50 (HIV-IIIb IN T174I BT): 1.02 µM

Cc1cc2nc(-c3ccc4c(c3)c(C3CCN(C(=O)[C@H]5CCCO5)CC3)nn4C)sc2c(-c2ccc(Cl)cc2)c1[C@H](OC(C)(C)C)C(=O)O [Compound 9, (S)-2-(tert-butoxy)-2-(7-(4-chlorophenyl)-5-methyl-2-(1-methyl-3-(1-((R)-tetrahydrofuran-2-carbonyl)piperidin-4-yl)-1H-indazol-5-yl)benzo[d]thiazol-6-yl)acetic Acid]
half-life [1]: 4.17 h
EC50 (HIV-IIIb (wildtype); [3]): 0.009 µM
EC50 (HIV-IIIb IN T174I DE): 0.511 µM
EC50 (HIV-IIIb IN T174I BT): 0.237 µM

Cc1cc2nc(-c3ccc4c(c3)c(C3CCN(C5CS(=O)(=O)C5)CC3)nn4C)sc2c(-c2ccc(Cl)cc2)c1[C@H](OC(C)(C)C)C(=O)O [Compound 10, (S)-2-(tert-butoxy)-2-(7-(4-chlorophenyl)-2-(3-(1-(1,1-dioxidothietan-3-yl)piperidin-4-yl)-1-methyl-1H-indazol-5-yl)-5-methylbenzo[d]thiazol-6-yl)acetic Acid]
half-life [1]: 3.58 h
EC50 (HIV-IIIb (wildtype); [3]): 0.01 µM
EC50 (HIV-IIIb IN T174I DE): 0.303 µM
EC50 (HIV-IIIb IN T174I BT): 0.275 µM

Cc1cc2nc(-c3ccc4c(n3)c(N3CCN(C5COC5)CC3)nn4C)sc2c(-c2ccc(Cl)cc2)c1[C@H](OC(C)(C)C)C(=O)O [Compound 15, (S)-2-(tert-butoxy)-2-(7-(4-chlorophenyl)-5-methyl-2-(1-methyl-3-(4-(oxetan-3-yl)piperazin-1-yl)-1H-pyrazolo[4,3-b]pyridin-5-yl)benzo[d]thiazol-6-yl)acetic Acid]
half-life [1]: 2.83 h
EC50 (HIV-IIIb (wildtype); [3]): 0.004 µM
EC50 (HIV-IIIb IN T174I DE): 3.07 µM
EC50 (HIV-IIIb IN T174I BT): 0.657 µM

Cc1cc2nc(-c3cnc4c(c3)c(C3CCN(C5COC5)CC3)cn4C)sc2c(-c2ccc(Cl)cc2)c1[C@H](OC(C)(C)C)C(=O)O [Compound 17, (S)-2-(tert-butoxy)-2-(7-(4-chlorophenyl)-5-methyl-2-(1-methyl-3-(1-(oxetan-3-yl)piperidin-4-yl)-1H-pyrrolo[2,3-b]pyridin-5-yl)benzo[d]thiazol-6-yl)acetic Acid]
half-life [1]: 4.7 h
EC50 (HIV-IIIb (wildtype); [3]): 0.008 µM
EC50 (HIV-IIIb IN T174I DE): 0.786 µM
EC50 (HIV-IIIb IN T174I BT): 0.238 µM

Cc1cc2nc(-c3ccc4c(c3)c(C3CCOCC3)nn4C)sc2c(-c2ccc(Cl)cc2)c1[C@H](OC(C)(C)C)C(=O)O [Compound 19, (S)-2-(tert-butoxy)-2-(7-(4-chlorophenyl)-5-methyl-2-(1-methyl-3-(tetrahydro-2H-pyran-4-yl)-1H-indazol-5-yl)benzo[d]thiazol-6-yl)acetic Acid]
half-life [1]: 4.15 h
EC50 (HIV-IIIb (wildtype); [3]): 0.012 µM
EC50 (HIV-IIIb IN T174I DE): 2.78 µM
EC50 (HIV-IIIb IN T174I BT): 1.17 µM

[2H]C([2H])([2H])C(O[C@H](C(=O)O)c1c(C)cc2nc(-c3ccc4c(c3)c(C3CCN(C5COC5)CC3)nn4C)sc2c1-c1ccc(Cl)cc1)(C([2H])([2H])[2H])C([2H])([2H])[2H] [Compound 21, (S)-2-(7-(4-chlorophenyl)-5-methyl-2-(1-methyl-3-(1-(oxetan-3-yl)piperidin-4-yl)-1H-indazol-5-yl)benzo[d]thiazol-6-yl)-2-((2-(methyl-d3)propan-2-yl-1,1,1,3,3,3-d6)oxy)acetic Acid]
half-life [1]: 3.3 h
EC50 (HIV-IIIb (wildtype); [2]): 0.004 µM
EC50 (HIV-IIIb IN T174I DE): 0.239 µM
EC50 (HIV-IIIb IN T174I BT): 0.124 µM

Cc1cc2nc(-c3ccc4c(c3)c(C3CCN(S(C)(=O)=O)CC3)nn4C)sc2c(-c2ccc(Cl)cc2)c1[C@H](OC(C)(C)C)C(=O)O [Compound 25, (S)-2-(tert-butoxy)-2-(7-(4-chlorophenyl)-5-methyl-2-(1-methyl-3-(1-(methylsulfonyl)piperidin-4-yl)-1H-indazol-5-yl)benzo[d]thiazol-6-yl)acetic acid]
half-life [1]: 4.25 h
EC50 (HIV-IIIb (wildtype); [3]): 0.01 µM
EC50 (HIV-IIIb IN T174I DE): 0.806 µM
EC50 (HIV-IIIb IN T174I BT): 0.404 µM

Cc1cc2nc(-c3ccc4c(c3)c(C3CCOC3)nn4C)sc2c(-c2ccc(Cl)cc2)c1[C@H](OC(C)(C)C)C(=O)O (stereo partly drawn) [Compound 52, (2S)-2-(tert-butoxy)-2-(7-(4-chlorophenyl)-5-methyl-2-(1-methyl-3-(tetrahydrofuran-3-yl)-1H-indazol-5-yl)benzo[d]thiazol-6-yl)acetic acid]
half-life [1]: 3.72 h
EC50 (HIV-IIIb (wildtype); [3]): 0.008 µM
EC50 (HIV-IIIb IN T174I DE): 0.946 µM
EC50 (HIV-IIIb IN T174I BT): 0.905 µM

COCC(COC)N1CC(c2nn(C)c3ccc(-c4nc5cc(C)c([C@H](OC(C)(C)C)C(=O)O)c(-c6ccc(Cl)cc6)c5s4)cc23)C1 [Compound 61, (S)-2-(tert-butoxy)-2-(7-(4-chlorophenyl)-2-(3-(1-(1,3-dimethoxypropan-2-yl)azetidin-3-yl)-1-methyl-1H-indazol-5-yl)-5-methylbenzo[d]thiazol-6-yl)acetic acid]
half-life [1]: 3.62 h
EC50 (HIV-IIIb (wildtype); [3]): 0.007 µM
EC50 (HIV-IIIb IN T174I DE): 2.7 µM
EC50 (HIV-IIIb IN T174I BT): 1.61 µM

Cc1cc2nc(-c3ccc4c(c3)c(C3CCN(C5COC5)C3)nn4C)sc2c(-c2ccc(Cl)cc2)c1[C@H](OC(C)(C)C)C(=O)O (stereo partly drawn) [Compound 70, (2S)-2-(tert-butoxy)-2-(7-(4-chlorophenyl)-5-methyl-2-(1-methyl-3-(1-(oxetan-3-yl)pyrrolidin-3-yl)-1H-indazol-5-yl)benzo[d]thiazol-6-yl)acetic acid]
half-life [1]: 5.87 h
EC50 (HIV-IIIb (wildtype); [3]): 0.007 µM
EC50 (HIV-IIIb IN T174I DE): 0.942 µM
EC50 (HIV-IIIb IN T174I BT): 0.587 µM

COCCOC(=O)N1CCC(c2nn(C)c3ccc(-c4nc5cc(C)c([C@H](OC(C)(C)C)C(=O)O)c(-c6ccc(Cl)cc6)c5s4)cc23)C1 (stereo partly drawn) [Compound 73, (2S)-2-(tert-butoxy)-2-(7-(4-chlorophenyl)-2-(3-(1-((2-methoxyethoxy)carbonyl)pyrrolidin-3-yl)-1-methyl-1H-indazol-5-yl)-5-methylbenzo[d]thiazol-6-yl)acetic acid]
half-life [1]: 3.05 h
EC50 (HIV-IIIb (wildtype); [3]): 0.006 µM
EC50 (HIV-IIIb IN T174I DE): 0.823 µM
EC50 (HIV-IIIb IN T174I BT): 0.72 µM

CC(=O)N1CCC(c2nn(C)c3ccc(-c4nc5cc(C)c([C@H](OC(C)(C)C)C(=O)O)c(-c6ccc(Cl)cc6)c5s4)cc23)C1 (stereo partly drawn) [Compound 74, (2S)-2-(2-(3-(1-acetylpyrrolidin-3-yl)-1-methyl-1H-indazol-5-yl)-7-(4-chlorophenyl)-5-methylbenzo[d]thiazol-6-yl)-2-(tert-butoxy)acetic acid]
half-life [1]: 3.32 h
EC50 (HIV-IIIb (wildtype); [3]): 0.01 µM
EC50 (HIV-IIIb IN T174I DE): 0.587 µM
EC50 (HIV-IIIb IN T174I BT): 0.349 µM

COCCN1CCCC(c2nn(C)c3ccc(-c4nc5cc(C)c([C@H](OC(C)(C)C)C(=O)O)c(-c6ccc(Cl)cc6)c5s4)cc23)C1 (stereo partly drawn) [Compound 77, (2S)-2-(tert-butoxy)-2-(7-(4-chlorophenyl)-2-(3-(1-(2-methoxyethyl)piperidin-3-yl)-1-methyl-1H-indazol-5-yl)-5-methylbenzo[d]thiazol-6-yl)acetic acid]
half-life [1]: 2.17 h
EC50 (HIV-IIIb (wildtype); [3]): 0.009 µM
EC50 (HIV-IIIb IN T174I DE): 3.27 µM
EC50 (HIV-IIIb IN T174I BT): 1.81 µM

Cc1cc2nc(-c3ccc4c(c3)c(N3CCN(C)C3=O)nn4C)sc2c(-c2ccc(Cl)cc2)c1[C@H](OC(C)(C)C)C(=O)O [Compound 80, (S)-2-(tert-butoxy)-2-(7-(4-chlorophenyl)-5-methyl-2-(1-methyl-3-(3-methyl-2-oxoimidazolidin-1-yl)-1H-indazol-5-yl)benzo[d]thiazol-6-yl)acetic Acid]
half-life [1]: 5.42 h
EC50 (HIV-IIIb (wildtype); [3]): 0.013 µM
EC50 (HIV-IIIb IN T174I DE): 2.28 µM
EC50 (HIV-IIIb IN T174I BT): 1.51 µM

Cc1cc2nc(-c3ccc4c(c3)c(N3CC[C@@H](N(C)C)C3)nn4C)sc2c(-c2ccc(Cl)cc2)c1[C@H](OC(C)(C)C)C(=O)O [Compound 92, (S)-2-(tert-butoxy)-2-(7-(4-chlorophenyl)-2-(3-((R)-3-(dimethylamino)pyrrolidin-1-yl)-1-methyl-1H-indazol-5-yl)-5-methylbenzo[d]thiazol-6-yl)acetic acid]
half-life [1]: 6.05 h
EC50 (HIV-IIIb (wildtype); [3]): 0.014 µM
EC50 (HIV-IIIb IN T174I DE): 1.95 µM
EC50 (HIV-IIIb IN T174I BT): 0.938 µM

COCCN1CCN(c2nn(C)c3ccc(-c4nc5cc(C)c([C@H](OC(C)(C)C)C(=O)O)c(-c6ccc(Cl)cc6)c5s4)cc23)CC1 [Compound 98, (S)-2-(tert-butoxy)-2-(7-(4-chlorophenyl)-2-(3-(4-(2-methoxyethyl)piperazin-1-yl)-1-methyl-1H-indazol-5-yl)-5-methylbenzo[d]thiazol-6-yl)acetic acid]
half-life [1]: 3.17 h
EC50 (HIV-IIIb (wildtype); [3]): 0.004 µM
EC50 (HIV-IIIb IN T174I DE): 0.516 µM
EC50 (HIV-IIIb IN T174I BT): 0.29 µM

CCOCCN1CCN(c2nn(C)c3ccc(-c4nc5cc(C)c([C@H](OC(C)(C)C)C(=O)O)c(-c6ccc(Cl)cc6)c5s4)cc23)CC1 [Compound 99, (S)-2-(tert-butoxy)-2-(7-(4-chlorophenyl)-2-(3-(4-(2-ethoxyethyl)piperazin-1-yl)-1-methyl-1H-indazol-5-yl)-5-methylbenzo[d]thiazol-6-yl)acetic Acid]
half-life [1]: 4.33 h
EC50 (HIV-IIIb (wildtype); [3]): 0.006 µM
EC50 (HIV-IIIb IN T174I DE): 0.759 µM
EC50 (HIV-IIIb IN T174I BT): 0.485 µM
